Reference: patent publication US20260325645A1, “IMPROVEMENTS IN OR RELATING TO COMPOSITIONS FOR IMPROVEMENT OF PHOTODYNAMIC THERAPY” (SYDERMA LTD, priority 2023, published 2026)
Entries after “also recorded” stand apart in the source; their conditions may differ.

Assays:
[1] = references 11, 12, 13; cited from earlier work
ATR = settings: reference 10; cited from earlier work
ATM = settings: reference 10; cited from earlier work
PARP = settings: only compound with activity on PARP in addition to ATM and ATR; cited from earlier work
acne = assay: Theobromine treatment of acne (comparative Examples 8-11); assay type: in vivo, human; settings: 0.5% theobromine topical; for improvement of acne: data not shown
Experimental: (§1) A patient presented with acne bilaterally on their face. The acne presented as active inflammatory reaction or as visible white liquid-filled extrusions. For the purposes of the test, the affected area was split into two sections, left cheek and right cheek. The right face was treated with 0.5% theobromine topical preparation solution. The theobromine solution was prepared in 25% ethanol and 50% glycerol, adjusted to pH 8 via 100 mM sodium hydrogen carbonate solution.
For the purposes of the treatment, theobromine solution was applied to the right side of the face in a thin film using 100-200 μL of the solution (2-4 drops). The solution was left to dry and penetrate the skin for 20 minutes, after which both sides of the face were covered in the photosensitizer cream as per manufacturer's instructions, using 1-1.5 g of cream. The cream was left to penetrate the skin for 5-10 minutes and the patient was asked not to wash their face for 2 hours.
The patient was assessed first prior to treatment and subsequently 1 month after for the success and quantification of active acne on each side of the face by a qualified dermatologist.
as §1, with “The left” for “The right”
For the purposes of the treatment, theobromine solution was applied to the left side of the face in a thin film using 100-200 μL of the solution (2-4 drops). […]
The patient was assessed first prior to treatment and subsequently 6 weeks after for the success and quantification of active acne on each side of the face by a qualified dermatologist.

actinic keratoses = assay: Theobromine alone on actinic keratoses (comparative Examples 4 and 5); assay type: in vivo, human; settings: 0.5% theobromine solution applied once, 1 month later
Experimental: A person presented with actinic keratoses on their scalp. Three actinic keratoses were selected by a qualified dermatologist and treated once with 0.5% theobromine topical preparation solution. The theobromine solution was prepared in 25% ethanol and 50% glycerol, adjusted to pH 8 via 100 mM sodium hydrogen carbonate solution. For treatment, theobromine solution was applied to the selected lesions of the scalp in a thin aqueous film using 50 μL of the solution per lesion (1 drop). The solution was left to dry and permeate the skin for 20 minutes. The position of the lesions was marked with a water-soluble marker and the lesions were photographed. The patient was reviewed 1 month later by a qualified dermatologist and the lesions were compared with the baseline photographs.
A person presented with actinic keratoses on their face and scalp. An actinic keratosis was selected by a qualified dermatologist on their right cheek and treated once with 0.5% theobromine topical preparation solution. The theobromine solution was prepared in 25% ethanol and 50% glycerol, adjusted to pH 8 via 100 mM sodium hydrogen carbonate solution. For treatment, theobromine solution was applied to the selected lesions of the […] in a thin aqueous film using 50 μL of the solution per lesion (1 drop). The solution was left to dry and permeate the skin for 20 minutes. […]

DNA repair = settings: in vitro, through modulating the activity of ATM/ATR kinases, as well as PARP; references 10,11,12,14; cited from earlier work
[2] = clinical trials; reference 17; cited from earlier work
active lesions (acne) = assay: Combined analysis of acne lesion clearance, Examples 3, 6 and 7 (FIG. 6); assay type: in vivo, human; settings: pre- and final post-treatment data of Examples 3, 6 and 7; P 0.005 paired, two-tailed T-test

Cn1c(=O)c2c(ncn2C)n(C)c1=O [caffeine]
radiosensitising activity [1]: radiosensitisers
ATR inhibition (ATR): inhibitors of both ATM and ATR
ATM inhibition (ATM): inhibitors of both ATM and ATR

Cn1cnc2c1c(=O)[nH]c(=O)n2C [theobromine]
radiosensitising activity [1]: radiosensitisers
PARP inhibitory activity (PARP): measurable PARP inhibitory activity
ATR inhibition (ATR): inhibitors of both ATM and ATR
patient-reported adverse effects (acne; 1 month (Examples 8, 9, 10) or 6 weeks (Example 11)): No patient-reported adverse effects
improvement of acne (acne; 1 month after (Examples 8, 9, 10)): did not improve acne
improvement of acne (acne; 6 weeks after (Example 11)): did not improve acne
improvement of actinic keratosis (actinic keratoses; no photosensitizer): No improvement of actinic keratoses was observed; also recorded: No improvement of actinic keratosis was observed
redness or soreness (actinic keratoses): No redness or soreness were observed
ATM inhibition (ATM): inhibitors of both ATM and ATR
inhibition of DNA repair (DNA repair): inhibit DNA repair in vitro

CC(=O)CCCCn1c(=O)c2c(ncn2C)n(C)c1=O [pentoxyphilline]
radiosensitising activity [1]: radiosensitisers
clinical benefit as radiosensitiser [2]: failed to provide consistent benefits

Cn1c(=O)c2[nH]cnc2n(C)c1=O [theophylline]
radiosensitising activity [1]: radiosensitisers

COC(=O)CCC(=O)CN [methyl aminolevulinate]
average clearance of active lesions (active lesions (acne)): 32%
